Results published in US10034886B2, “GLP-1 receptor modulators” (Celgene International II SÀRL, priority 2014, dated 2018).

Molecular target: T1, GLP-1R (Homo sapiens, UniProt P43220)
T1 construct: host or cells: GLP-1R CRE-bla CHO-K1 cells
Assay: EC20 GLP-1(9-36) PAM cAMP assay: dose response of compound in the presence of fixed concentration of GLP-1(9-36)
Assay type: cell-based
Details: GLP-1R CRE-bla CHO-K1 cells, compound dose response with fixed concentration of GLP-1(9-36), read-out: EC20 GLP-1(9-36) PAM EC50
Method in brief: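 Positive allosteric modulation read as cAMP accumulation: compound titrations (12 points) combined with an EC20 level of GLP-1(9-36) on CHO-K1 GLP-1R CRE-bla cells, IBMX present, 30 min, 37 °C, pH 7.4 buffer. Luminescence converted to cAMP via standards; non-linear fit gave EC50 and Emax.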

T1 sequence (P43220 24-463): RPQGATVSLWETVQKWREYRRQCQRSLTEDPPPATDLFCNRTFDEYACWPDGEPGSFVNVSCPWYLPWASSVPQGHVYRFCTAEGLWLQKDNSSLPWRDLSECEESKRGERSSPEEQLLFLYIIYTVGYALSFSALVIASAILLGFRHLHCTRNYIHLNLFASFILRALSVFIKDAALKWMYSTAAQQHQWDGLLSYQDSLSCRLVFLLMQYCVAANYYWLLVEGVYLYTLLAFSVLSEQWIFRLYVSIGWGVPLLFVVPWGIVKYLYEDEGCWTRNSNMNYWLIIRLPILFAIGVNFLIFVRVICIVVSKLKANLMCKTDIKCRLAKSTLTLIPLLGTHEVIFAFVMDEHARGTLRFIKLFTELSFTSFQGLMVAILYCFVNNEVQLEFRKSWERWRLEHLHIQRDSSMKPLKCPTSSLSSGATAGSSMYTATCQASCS
T1 sequence (P01275 100-127 partner limits assumed): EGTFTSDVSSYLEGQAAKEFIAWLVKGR

`Cc1cccc(-c2ccc(-c3cnc(-c4ccc(C[C@H](NC(=O)c5ccc(C(C)(C)C)s5)C(=O)N[C@H](C)C(=O)O)cc4)nc3)cc2)c1` [Compound 1285] and `C[C@@H](NC(=O)[C@H](Cc1ccc(-c2ncc(-c3ccc(-c4ccc(OC(F)(F)F)cc4)cc3)cn2)cc1)NC(=O)c1ccc(C(C)(C)C)s1)C(=O)O` [Compound 1314] cannot be ordered by EC50: < 0.8 µM for the first, < 0.8 µM for the second.

`CCCc1ccc(-c2ccc(-c3cnc(-c4ccc(C[C@H](NC(=O)c5ccc(C(C)(C)C)s5)C(=O)N5CC(C(=O)O)C5)cc4)nc3)c(F)c2)cc1` [Compound 1208] and `CCCc1ccc(-c2ccc(-c3cnc(-c4ccc(C[C@H](NC(=O)c5ccc(S(C)(=O)=O)cc5)C(=O)N5CC(C(=O)O)C5)cc4)nc3)c(F)c2)cc1` [Compound 1404] cannot be ordered by EC50: < 0.8 µM for the first, < 0.8 µM for the second.

Compared with `CC[C@H]1CC[C@H](c2ccc(-c3cnc(-c4ccc(C[C@H](NC(=O)c5ccc(C(C)(C)C)s5)C(=O)N[C@H](Cc5c[nH]cn5)C(=O)O)cc4)nc3)cc2)CC1` [Compound 1322], `C[C@@H](NC(=O)[C@H](Cc1ccc(-c2ncc(-c3ccc4c(c3)C(C)(C)c3ccccc3-4)cn2)cc1)NC(=O)c1ccc(C(C)(C)C)s1)C(=O)O` [Compound 1304] is higher in EC50: < 0.8 µM for the first, 0.8 to 2.5 µM for the second. The first is the more potent here.

`CCCc1ccc(C2CCN(c3cnc(-c4ccc(C[C@H](NC(=O)c5ccc(C(C)(C)C)s5)C(=O)N5CC(C(=O)O)C5)cc4)nc3)C2)cc1` (some centres unmarked) [Compound 1504] and `Cc1cccc(/C=C/c2cnc(-c3ccc(C[C@H](NC(=O)c4ccc(C(C)(C)C)s4)C(=O)N[C@H](C)C(=O)O)cc3)nc2)c1` [Compound 1254] fall in the same range of EC50: 0.8 to 2.5 µM for the first, 0.8 to 2.5 µM for the second.

`C[C@@H](NC(=O)[C@H](Cc1ccc(-c2ncc(/C=C/CCCCc3ccccc3)cn2)cc1)NC(=O)c1ccc(C(C)(C)C)s1)C(=O)O` [Compound 1253] was tested, and the EC50 was < 0.8 µM.

Same assay, conditions: dose response of compound in presence of fixed concentration of GLP-1(9-36), GLP-1R CRE-bla CHO-K1 cells, read-out: EC20 GLP-1(9-36) PAM EC50

First: CCCCCCCOc1ccc(-c2cnc(-c3ccc(C[C@H](NC(=O)c4ccc(C(C)(C)C)c(OC)c4)C(=O)N4CC(C(=O)O)C4)cc3)nc2)cc1 [Compound 1120]
Second: CCCCCCCOc1ccc(-c2cnc(-c3ccc(C[C@H](NC(=O)c4ccc(C(C)(C)C)c(OC)c4)C(=O)N4CCC[C@H]4C(=O)O)cc3)nc2)cc1 [Compound 1081]
The EC50 of the first is higher: 2.5 to 5 µM for the first, 0.8 to 2.5 µM for the second.

Compared with `Cc1ccc(-c2ccc(-c3cnc(-c4ccc(C[C@H](NC(=O)c5ccc(C(C)(C)C)s5)C(=O)N[C@H](C)C(=O)O)cc4)nc3)c(F)c2)cc1` [Compound 1172], `C[C@@H](NC(=O)[C@H](Cc1ccc(-c2ncc(-c3ccc(Cl)cc3)cn2)cc1)NC(=O)c1ccc(C(C)(C)C)s1)C(=O)O` [Compound 1029] is higher in EC50: 0.8 to 2.5 µM for the first, 2.5 to 5 µM for the second. The first is the more potent here.

Compared with `CCCCCCCOc1ccc(-c2cnc(-c3ccc(C[C@H](NC(=O)c4ccc(C(C)(C)C)cc4)C(=O)NC(CC(=O)O)c4cccnc4)cc3)nc2)cc1` (some centres unmarked) [Compound 571], `CCCCCCCOc1ccc(-c2cnc(-c3ccc(C[C@H](NC(=O)c4ccc(C(C)(C)C)cc4)C(=O)NC(C(=O)O)C(O)c4ccccc4)cc3)nc2)cc1` (some centres unmarked) [Compound 569] is lower in EC50: 0.8 to 2.5 µM for the first, < 0.8 µM for the second.

Compared with `COc1ccc(-c2cnc(-c3ccc(C[C@H](NC(=O)c4ccc(C(C)(C)C)s4)C(=O)N[C@H](C)C(=O)O)cc3)nc2)cc1` [Compound 730], `CCCCCCCOc1ccc(-c2cnc(-c3ccc(CC(NC(=O)c4ccc(C(C)(C)C)s4)C(=O)N[C@H](C(=O)O)[C@@H](C)O)cc3)nc2)cc1` (some centres unmarked) [Compound 424] is lower in EC50: 2.5 to 5 µM for the first, < 0.8 µM for the second. The second is the more potent here.

First: CCCCCCCOc1ccc(-c2cnc(-c3ccc(C[C@H](NC(=O)c4ccc(C(C)(C)C)cc4)C(=O)N4CC(O)CC(C(=O)O)C4)cc3)nc2)cc1 (some centres unmarked) [Compound 662]
Second: CCCCCCCOc1ccc(-c2cnc(-c3ccc(C[C@H](NC(=O)c4cnc(C(C)(C)C)nc4)C(=O)N4CC(C(=O)O)C4)cc3)nc2)cc1 [Compound 1118]
The EC50 of the first is lower: < 0.8 µM for the first, 0.8 to 2.5 µM for the second.

`CCCCCCCOc1ccc(-c2cnc(-c3ccc(C[C@H](NC(=O)c4ccc(CC(C)C)cc4)C(=O)N4CC[C@H](C(=O)O)C4)cc3)nc2)cc1` [Compound 851] and `CCCCCCCOc1ccc(-c2cnc(-c3ccc(C[C@H](NC(=O)c4ccc(CC)cn4)C(=O)N4CC(C(=O)O)C4)cc3)nc2)cc1` [Compound 1106] fall in the same range of EC50: 2.5 to 5 µM for the first, 2.5 to 5 µM for the second.

First: CCCCCCCOc1ccc(-c2cnc(-c3ccc(C[C@H](NC(=O)c4ccc(C(C)(C)C)s4)C(=O)NC(C(=O)O)C(O)c4ccc(S(C)(=O)=O)cc4)cc3)nc2)cc1 (some centres unmarked) [Compound 655]
Second: CCCCCCCOc1ccc(-c2cnc(-c3ccc(C[C@H](NC(=O)c4ccc(C(C)(C)C)s4)C(=O)NC(C(=O)O)C(O)c4cncnc4)cc3)nc2)cc1 (some centres unmarked) [Compound 904]
The EC50 of the first is lower: 0.8 to 2.5 µM for the first, 2.5 to 5 µM for the second. The first is the more potent here.

`CCC(C)(C)c1ccc(C(=O)N[C@@H](Cc2ccc(-c3ncc(-c4ccc([C@H]5CC[C@H](CC)CC5)cc4)cn3)cc2)C(=O)N2CC(C(=O)O)C2)cc1` [Compound 1157] and `CC[C@H]1CC[C@H](c2ccc(-c3cnc(-c4ccc(C[C@H](NC(=O)c5cnn(C(C)(C)C)c5)C(=O)N5CC(C(=O)O)C5)cc4)nc3)cc2)CC1` [Compound 1165] cannot be ordered by EC50: < 0.8 µM for the first, < 0.8 µM for the second.

`CC(C)(C)c1ccc(C(=O)N[C@@H](Cc2ccc(-c3ncc(-c4ccc(OCCC5CCCCC5)cc4)cn3)cc2)C(=O)N2CC(C(=O)O)C2)s1` [Compound 945] and `CC(C)(C)c1ccc(C(=O)N[C@@H](Cc2ccc(-c3ncc(-c4ccc(-c5ccc(Cl)c(Cl)c5)cc4F)cn3)cc2)C(=O)N2CC(C(=O)O)C2)s1` [Compound 1200] cannot be ordered by EC50: < 0.8 µM for the first, < 0.8 µM for the second.

Compared with `CCCCCCCOc1ccc(-c2cnc(-c3ccc(CC(NC(=O)c4ccc(C(C)(C)C)s4)C(=O)NCCCC(=O)O)cc3)nc2)cc1` (centres unmarked) [Compound 429], `CCCCCCCOc1ccc(-c2cnc(-c3ccc(C[C@H](NC(=O)c4ccc(C(C)(C)C)s4)C(=O)N[C@@H](CC(=O)N(C)CCN(C)C)C(=O)O)cc3)nc2)cc1` [Compound 520] is lower in EC50: 2.5 to 5 µM for the first, 0.8 to 2.5 µM for the second.

`CCCCCCCOc1ccc(-c2cnc(-c3ccc(C[C@H](NC(=O)c4ccc(CC(C)C)s4)C(=O)N4CCC[C@H]4C(=O)O)cc3)nc2)cc1` [Compound 1080] and `CCCCCCCOc1ccc(-c2cnc(-c3ccc(C[C@H](NC(=O)c4ccc(C(C)(C)C)cc4C)C(=O)N[C@H](C)C(=O)O)cc3)nc2)cc1` [Compound 843] fall in the same range of EC50: 0.8 to 2.5 µM for the first, 0.8 to 2.5 µM for the second.

First: C[C@@H](NC(=O)[C@H](Cc1ccc(-c2ncc(/C=C\c3ccccc3)cn2)cc1)NC(=O)c1ccc(C(C)(C)C)s1)C(=O)O [Compound 1050]
Second: CC(C)(C)c1ccc(C(=O)N[C@@H](Cc2ccc(-c3ncc(-c4ccc(OC5CC5)cc4)cn3)cc2)C(=O)NC(C(=O)O)C(O)c2ccccc2)s1 (some centres unmarked) [Compound 930]
The EC50 of the first is lower: 0.8 to 2.5 µM for the first, 5 to 10 µM for the second. The first is the more potent here.

`CCCCCCCOc1ccc(-c2cnc(-c3ccc(C[C@H](NC(=O)c4ccc(C(C)(C)C)s4)C(=O)NC(C(=O)O)C(OC)c4ccccc4)cc3)nc2)cc1` (some centres unmarked) [Compound 890] and `CCCCCCCOc1ccc(-c2cnc(-c3ccc(C[C@H](NC(=O)c4ccc(O)c(F)c4)C(=O)NC(C(=O)O)C(O)c4ccccc4)cc3)nc2)cc1` (some centres unmarked) [Compound 960] fall in the same range of EC50: 0.8 to 2.5 µM for the first, 0.8 to 2.5 µM for the second.

First: CCCCCCCOc1ccc(-c2cnc(-c3ccc(C[C@H](NC(=O)c4ccc(C(C)(C)C)cc4)C(=O)NC(C(=O)O)c4nc(C)oc4C)cc3)nc2)cc1 (some centres unmarked) [Compound 536]
Second: CCCCCCCOc1ccc(-c2cnc(-c3ccc(C[C@H](NC(=O)c4ccc(C(C)(C)C)cc4)C(=O)NCC(C(=O)O)C4CCOCC4)cc3)nc2)cc1 (some centres unmarked) [Compound 555]
The EC50 of the first is lower: 0.8 to 2.5 µM for the first, 2.5 to 5 µM for the second.

In the case of `CCCCCC(=O)c1ccc(-c2cnc(-c3ccc(C[C@H](NC(=O)c4ccc(C(C)(C)C)cc4)C(=O)N[C@H](C)C(=O)O)cc3)nc2)cc1` [Compound 725], the EC50 is reported as 0.8 to 2.5 µM.
